These results are taken from PMC10304225, “In Vitro Cytotoxicity and In Vivo Antitumor Activity of Lipid Nanocapsules Loaded with Novel Pyridine Derivatives” (Pharmaceutics, 2023).

The term IC50 denotes the concentration that inhibits the measured activity by half.

Data set [1] deals with Ehrlich ascites carcinoma (EAC) solid tumor. In words: In vivo antitumor activity in EAC solid tumor-bearing mice. The settings on record: 10 mg/kg i.p. every other day for 21 days. The procedure: Ehrlich ascites carcinoma (EAC) cells (1 × 10^6 cells) obtained from the National Cancer Institute (Cairo, Egypt) were injected intraperitoneally into the peritoneal cavity of Swiss Albino mice. On day 7 post tumor cell inoculation, ascites fluid was collected. EAC was diluted with saline to obtain a cell density of 25 × 10^6 cells/mL. Then, 200 μL of the cells were injected subcutaneously in the mice’s right flanks. Tumor growth was monitored post-inoculation, and the size of the tumor was measured with a Vernier caliper. Treatment protocols were initiated on day 8 post tumor inoculation, when the tumor was palpable. […]
The dose and route of administration of the test compound and the treatment regimen were established based on previously published reports. The antitumor efficacy of different treatment protocols was evaluated in terms of tumor size, percentage tumor growth inhibition (% TGI), median survival time (MST), and percentage increase in life span (% ILS) using the following equations [31, 32]:Tumor size (mm^3) = ½ (Length × Width^2) % TGI=1−Mean tumor volume of treated group/Mean tumor volume in control group×100 MST = (day of first death + day of last death)/2 %ILS=MSTtreated group/MSTcontrol group−1×100
In addition, body weight was assessed concurrently to determine any remarkable systemic toxicity.

Data set [2] concerns Swiss Albino mice. In words: Median lethal dose (LD50), single i.p. injection. The format is in vivo. As to conditions: for Number of animal dead: n=5, 24 h. How it is done:
The median lethal dose (LD50) test was performed to determine the dose of a test substance that elicits 50% death in mice. Briefly, a total of 30 mice were categorized into 6 groups (n = 5). Each group was dosed with a single intraperitoneal injection of the test compound (S4) dissolved in 3% dimethyl sulfoxide. The screened doses ranged from 100 to 180 mg/kg. The animals were then monitored for 2 h and then at 4, 6, and 24 h for signs of toxicity. At the end of 24 h, the total number of deaths was recorded. The LD50 was then calculated using the following equation [27]: LD50=LD100−{Σ[Dose difference×Mean dead]}/Number of animals per group where LD100 is the lowest dose capable of killing 100% of animals.

The nature of data set [3]: Solubility measurement in various solvents (excess compound, 72 h shaking). The format is physicochemical. As to conditions: for solubility in PB (pH 7.4): phosphate buffer pH 7.4. How it is done: The solubility of 2-amino-4-aryl-6-substituted pyridine-3,5-dicarbonitrile derivatives (S1–S4) in various solvents (methanol, ethanol, phosphate buffer, and water) was determined by adding an excess amount of each compound to 10 mL of each solvent in a sealed conical flask. The slurry was then agitated at 100 rpm in a temperature-controlled incubator shaker for 72 h to reach equilibrium. The undissolved particles were allowed to settle by keeping the saturated solution without agitation for another 2 h. The solution was then centrifuged at 10,000 rpm for 10 min. One mL samples of the clear supernatant was withdrawn, diluted with the suitable solvent, and finally analyzed spectrophotometrically at pre-determined wavelengths (Table S1).

Data set [4] deals with Ehrlich ascites carcinoma (EAC) solid tumor. As to the kind of experiment: Histopathological examination of solid tumors (H&E). The format is in vivo, mice. The settings on record: 10 mg/kg. The procedure: On the last day of the experiment, solid tumors were dissected from all mice and were fixed […] in formalin-alcohol for 48 h, dehydrated in an alcohol series, cleared in xylene, and embedded in paraffin. Sections (4–5 μm in thickness) were stained with hematoxylin and eosin (H&E). Slides were then imaged using a Universal Infinity System optical microscope (Olympus®, Tokyo, Japan) equipped with a computer-controlled digital camera. A histopathological analysis of the tumor sections was focused on finding a typical mitotic picture, neoplastic giant cells, and the extension of the necrotic area. Histopathological examinations were evaluated in a blinded way by a pathologist.

In a further data set the test system is A549 cells. As to the kind of experiment: In vitro cytotoxicity, MTT assay. As to conditions: 48 h, read-out: IC50 against A549. The format is cell-based, human. The procedure: (§1) A human lung cancer (A549) cell line, human breast adenocarcinoma (MCF-7), and normal MCF-10A human […] were obtained from VASCERA Co. (Vaccines Sera and Drugs; Cairo, Egypt). […] were cultured in Dulbecco’s modified Eagle’s medium (DMEM, Biowest, Nuaillé, France) supplemented with 10% fetal bovine serum, 100 U/mL penicillin/100 μg/mL streptomycin, and incubated under standard conditions (37 °C, 5% CO2).
(§2) The in vitro cytotoxicities of various pyridine derivatives loaded into LPNCs against A549 cells and MCF-7 cells were evaluated by the MTT assay. Briefly, 100 μL cell suspension equivalent to 1 × 10^4 cells/well was planted in a 96-well plate and incubated at 37 °C. At 24 h post-incubation, the cells were treated with 100 μL of serial dilutions of either free pyridine derivatives (S1–S4) or pyridine derivatives (S1–S4)-loaded LPNCs in a concentration range of 0.1 to 100 μM. The cells were further incubated at 37 °C for 48 h. The spent culture medium was then decanted, the cells were rinsed, 50 μL of MTT reagent (0.5 mg/mL) was added to each well, and the cells were incubated for 4 h at 37 °C. Finally, to dissolve the formazan crystals, DMSO solution (150 μL) was added to each well. The absorbance of each well was measured at 570 nm using a microplate reader (TEKAN Japan, Kawasaki, Japan). The percent cell viability was plotted against the tested compound concentration to determine the IC50 values.

The test system of the next data set is MCF-7 cells. As to the kind of experiment: In vitro cytotoxicity, MTT assay. The format is cell-based, human. As to conditions: 48 h, read-out: IC50 against MCF-7. The procedure:
as §1, §2
A general note: Formazan colour is commonly taken as a measure of viable cells.

The nature of data set [5]: Biochemical analysis of liver and kidney functions in serum. As to conditions: EAC-bearing mice, 10 mg/kg i.p., last day of experiment. The format is in vivo. How it is done:
On the last day of the experiment, 4 out 8 mice were euthanized, and blood samples were collected by cardiac puncture in dry Eppendorf tubes. Blood samples were set aside for 30 min at room temperature and the tubes were then centrifuged for 15 min at 2000× g to obtain serum. To assess possible hepatic damage, aspartate transaminase (AST) and alanine transaminase (ALT) activities in serum samples were assayed by using a commercial kit (Biodiagnostic, Cairo, Egypt) according to the method of Reitman and Frankel. In addition, serum creatinine level was quantified as an indicator for possible renal damage. The level of serum creatinine was analyzed by using a commercial kit that was purchased from Biodiagnostic (Cairo, Egypt) according to manufacturer instructions.

The subject of data set [6] is Swiss Albino mice. In words: Acute toxicity study, single i.p. dose. It counts as in vivo. The procedure:
Acute toxicity studies are carried out in order to evaluate the short-term negative effects of a test compound when administered in a single dose during a period of 24 h. Briefly, the maximum tolerated dose (100 mg/kg) of the test compound (S4), dissolved in 3% dimethyl sulfoxide, was injected intraperitoneally in a group of mice (n = 5). A control group (n = 5) was i.p. injected with an equivalent volume of 3% dimethyl sulfoxide. The mice were then observed for general behavior for 1 h post-treatment and then intermittently for 4 h and finally at 24 h. The mice were then monitored for up to 14 days after treatment for symptoms of toxicity or mortalities.

In brackets after ≈: the same amount, converted by molar mass. Bounds are passed on as bounds.

Regarding `N#Cc1c(N)nc(Nc2ccccc2)c(C#N)c1-c1ccccc1` [Compound S4], the “tumor growth inhibition rate (TGI (%))” value in data set [1] is on record as 73.42%. In the data set on Swiss Albino mice [2] (100 mg/kg i.p.), the “lethality and signs of toxicity” value is “not lethal but only induced drowsiness”; the “Number of animal dead” value amounted to 0. Also, the lethality result in the data set on Swiss Albino mice [2] (120 mg/kg and higher, i.p.) is reported as “lethal to animals”. Also, the “Number of animal dead” value with Swiss Albino mice [2] (120 mg/kg i.p.) amounted to 5. Besides, in the data set on Swiss Albino mice [2] (140 mg/kg i.p.), the “Number of animal dead” value is 5. In addition, the “Number of animal dead” value in the data set on Swiss Albino mice [2] (160 mg/kg i.p.) turned out to be 5. Also, the “Number of animal dead” value in the data set with Swiss Albino mice [2] (180 mg/kg i.p.) stood at 5. In data set [3], the solubility in ethanol came to 18.56 ± 0.337 mg/mL (≈ 59.6 mM), the solubility in methanol was 16.57 ± 0.315 mg/mL (≈ 53.2 mM), the “solubility in PB (pH 7.4)” value came out at 0.59 ± 0.001 mg/ml and the solubility in water stood at 0.58 ± 0.002 mg/mL (≈ 1.86 mM). The tumor section histology entry in data set [4] was “loss of cellular architecture and tumor tissue compactness”. For the same molecule, in the data set on A549 cells, the IC50 was above 100 µM. The IC50 in the data set with MCF-7 cells was above 100 µM. For the same molecule, in data set [5], the ALT stood at 20.50 ± 1.28 IU/L, the AST turned out to be 36.66 ± 1.87 IU/L and the Creatinine was found to be 0.54 ± 0.02 mg/dL. Moreover, the maximum tolerated dose with Swiss Albino mice [6] (mice, i.p.) was 100 mg/kg. Also, the acute toxicity observations result with Swiss Albino mice [6] (up to 100 mg/kg i.p., monitored up to 14 days) was “no behavioral abnormalities, toxicity symptoms, or mortalities were detected”.

In data set [3], `CCNc1nc(N)c(C#N)c(-c2ccccc2)c1C#N` [Compound S1] came in with a solubility in ethanol of 5.98 ± 0.230 mg/mL (≈ 22.7 mM), a solubility in methanol of 21.76 ± 0.260 mg/mL (≈ 82.6 mM) and a solubility in water of 0.57 ± 0.021 mg/mL (≈ 2.16 mM). In addition, in the data set with A549 cells, the IC50 was above 100 µM. In addition, in the data set on MCF-7 cells, the half-inhibitory concentration (IC50) is above 100 µM.

Consider `Cc1ccc(Nc2nc(N)c(C#N)c(-c3ccccc3)c2C#N)cc1` [Compound S2], for which, in data set [3], the solubility in ethanol was 13.82 ± 0.326 mg/mL (≈ 42.5 mM), the solubility in methanol turned out to be 25.71 ± 0.323 mg/mL (≈ 79 mM), the “solubility in PB (pH 7.4)” value was 1.63 ± 0.005 mg/ml and the solubility in water came to 1.25 ± 0.006 mg/mL (≈ 3.84 mM). Further, the 50% inhibitory concentration (IC50) with A549 cells is above 100 µM. Moreover, the concentration for half-maximal inhibition (IC50) in the data set with MCF-7 cells is above 100 µM.

With `O=c1[nH]cc(F)c(=O)[nH]1` [Compound 5-FU, 5-fluorouracil, reference compound], the “tumor growth inhibition rate (TGI (%))” value in data set [1] amounted to 86.81%. For the same molecule, in data set [4], the tumor section histology result is “loss of cellular architecture and tumor tissue compactness”. In data set [5], the ALT was determined as 51.87 ± 1.29 IU/L, the AST came out at 74.23 ± 3.84 IU/L and the Creatinine is 1.05 ± 0.15 mg/dL.

Consider `N#Cc1c(N)nc(N)c(C#N)c1-c1ccccc1` [Compound S3], for which, in data set [3], the solubility in ethanol was found to be 18.86 ± 0.225 mg/mL (≈ 80.2 mM), the solubility in methanol was found to be 35.36 ± 0.203 mg/mL (≈ 150 mM), the “solubility in PB (pH 7.4)” value turned out to be 0.59 ± 0.010 mg/ml and the solubility in water is 0.99 ± 0.007 mg/mL (≈ 4.21 mM). In addition, the IC50 in the data set on A549 cells was above 100 µM. Also, the IC50 in the data set on MCF-7 cells is above 100 µM.
